This passage reports IC50, chromatographic logD and logD results from ChEMBL document CHEMBL4425159, “Design, synthesis and antimalarial evaluation of novel thiazole derivatives” (Bioorg Med Chem Lett, 2016).

SMILES strings stand for the structures. Where only a bound is given, the exact number is not on record here.

One series deals with Plasmodium falciparum. As to the kind of experiment: Antimalarial activity against chloroquine sensitive-Plasmodium falciparum 3D7 assessed as growth inhibition preincubated for 24 hrs followed by [3H]-hypoxanthine incorporation measured after 24 hrs by scintillation counting. It counts as functional, organism-based.
The subject of a further series is HepG2. Put plainly: Cytotoxicity against human HepG2 cells assessed as cell growth inhibition. Type of series: cell-based.
A short description of series [1]: Lipophilicity, log D of the compound by chromatographic method. It counts as physicochemical.

Turning to `CC(C)c1sc(N2CCN(C)CC2)nc1C(=O)Nc1cnccc1Cl`, the IC50 (commonly the concentration that gives 50% inhibition) in the series on Plasmodium falciparum was determined as 1700 nM.

For `CC(C)c1sc(N2CCN(C)CC2)nc1C(=O)Nc1ccccc1Cl`, the IC50 in the series with Plasmodium falciparum is 58 nM; with HepG2 it was more than 100 µM.

Turning to `CC(C)c1sc(N2CCOCC2)nc1C(=O)Nc1ccc(F)cc1C(F)(F)F`, the IC50 in the series with Plasmodium falciparum is 102 nM.

For the compound `CC(C)c1sc(N(C)CCO)nc1C(=O)Nc1ccc(F)cc1C(F)(F)F`, the IC50 in the series on Plasmodium falciparum came out at 3260 nM.

As for `CC(C)c1sc(N2CCN(C)CC2)nc1C(=O)Nc1ccccc1CO`, the IC50 with Plasmodium falciparum was more than 5000 nM.

With `CC(C)c1sc(N2CCN(C)CC2)nc1C(=O)Nc1c(Cl)cc(F)cc1Cl`, in the series with Plasmodium falciparum, the IC50 was more than 5000 nM.

For `CC(C)c1sc(N2CCN(C)CC2)nc1C(=O)Nc1ccccc1C#N`, the IC50 in the series with Plasmodium falciparum worked out at 98 nM; with HepG2 it was 32 µM.

Turning to `CC(C)c1sc(N2CCN(C)CC2)nc1C(=O)Nc1cc(F)cc(F)c1`, the IC50 in the series with Plasmodium falciparum is more than 5000 nM.

Consider `Cc1ccc(NC(=O)c2nc(N3CCN(C)CC3)sc2C(C)C)c(Cl)c1`, for which the IC50 in the series on Plasmodium falciparum turned out to be 3270 nM.

On to `CC(C)c1sc(N2CCN(C)CC2)nc1C(=O)Nc1cccnc1Cl`, for which the figures for the IC50 in the series on Plasmodium falciparum and in the series on HepG2 were 80 nM and more than 100 µM, respectively. In addition, in series [1], the chromatographic logD (as a rule, lipophilicity estimated from chromatographic retention) was 7.8.

Regarding `CC(C)c1sc(N(C)CCN(C)C)nc1C(=O)Nc1ccc(F)cc1C(F)(F)F`, the IC50 in the series with Plasmodium falciparum worked out at 3150 nM.

In the case of `COc1ccccc1NC(=O)c1nc(N2CCN(C)CC2)sc1C(C)C`, the IC50 in the series on Plasmodium falciparum came to 350 nM.

On to `CC(C)c1sc(N2CCN(C)CC2)nc1C(=O)Nc1ccccc1C(N)=O`, for which the IC50 with Plasmodium falciparum was more than 5000 nM.

Take `Cc1cc(F)ccc1NC(=O)c1nc(N2CCN(C)CC2)sc1C(C)C`: the IC50 in the series on Plasmodium falciparum is 720 nM.

Turning to `CC(C)c1sc(N2CCN(C)CC2)nc1C(=O)Nc1ccccc1OC(F)(F)F`, the IC50 is 34 nM in the series on Plasmodium falciparum and more than 100 µM in the series with HepG2.

As for `CC(C)c1sc(N2CCN(C)CC2)nc1C(=O)Nc1ccc(F)cc1F`, in the series on Plasmodium falciparum, the IC50 stood at 1190 nM.

For the compound `CC(C)c1sc(N2CCN(C)CC2)nc1C(=O)Nc1ccccc1F`, the IC50 with Plasmodium falciparum was determined as 260 nM.

With `CC(C)c1sc(N2CCN(C)CC2)nc1C(=O)Nc1c(Cl)cc(C(F)(F)F)cc1Cl`, in the series on Plasmodium falciparum, the IC50 is more than 5000 nM.

For `CC(C)c1sc(N2CCN(C)CC2)nc1C(=O)Nc1ncccc1Cl`, the IC50 in the series with Plasmodium falciparum was more than 5000 nM.

With `CC(C)c1sc(N2CCN(C)CC2)nc1C(=O)Nc1c(F)cccc1F`, the IC50 in the series with Plasmodium falciparum is more than 5000 nM.

Consider `CC(C)c1sc(N2CCN(C)CC2)nc1C(=O)Nc1ccc(F)cc1C(F)(F)F`, for which the 50% inhibitory concentration (IC50) in the series with Plasmodium falciparum was found to be 24 nM; in the series with HepG2, 78 µM. Further, the logD (as a rule, the decadic logarithm of the distribution of all forms, ionised or not, between an organic phase and buffer at a given pH) in series [1] came to 9.06.

As for `CC(C)c1sc(N2CCN(C)CC2)nc1C(=O)Nc1ccc(F)cc1`, the IC50 in the series on Plasmodium falciparum is more than 5000 nM.

As for `COCCN(C)c1nc(C(=O)Nc2ccc(F)cc2C(F)(F)F)c(C(C)C)s1`, the IC50 with Plasmodium falciparum is 590 nM.

As for `CC(C)c1sc(N2CCN(C)CC2)nc1C(=O)Nc1cccnc1`, the IC50 in the series with Plasmodium falciparum is more than 5000 nM.

As to `CC(C)c1sc(N2CCN(C)CC2)nc1C(=O)Nc1ccccc1S(N)(=O)=O`, the IC50 in the series with Plasmodium falciparum is more than 5000 nM.

Regarding `CC(C)c1sc(N2CCN(C)CC2)nc1C(=O)Nc1ccccc1C(F)(F)F`, the values for the IC50 with Plasmodium falciparum and with HepG2 were 31 nM and 50 µM, respectively.

With `CC(C)c1sc(N2CCN(C)CC2)nc1C(=O)Nc1ccc(F)cc1Cl`, the IC50 was 58 nM with Plasmodium falciparum and more than 100 µM in the series on HepG2.

Regarding `CC(C)c1sc(N2CCN(C)CC2)nc1C(=O)Nc1cccc(Cl)n1`, the IC50 in the series on Plasmodium falciparum stood at 350 nM.

As for `CC(C)c1sc(N2CCN(C)CC2)nc1C(=O)Nc1ccc(C(F)(F)F)cc1Cl`, in the series with Plasmodium falciparum, the IC50 was more than 5000 nM.
